According to patent US10952435B2, “Pyridine-2-carboxamides as nematocides” (SYNGENTA PARTICIPATIONS AG, priority 2013, dated 2021):

O=C(NCCc1ccc(C(F)(F)F)cc1F)c1ncccc1C(F)(F)F [A.001, 3-Trifluoromethyl-pyridine-2-carboxylic acid [2-(2-fluoro-4-trifluoromethyl-phenyl)-ethyl]-amide]
melting point: 95 °C

Cc1cccnc1C(=O)NCC(F)(F)c1ccc(Cl)cc1Cl [A.009, N-[2-(2,4-dichlorophenyl)-2,2-difluoro-ethyl]-3-methyl-pyridine-2-carboxamide]
melting point: 117 to 118 °C

O=C(NCCc1ccc(Cl)cc1F)c1ncccc1C(F)(F)F [A.002, 3-Trifluoromethyl-pyridine-2-carboxylic acid [2-(4-chloro-2-fluoro-phenyl)-ethyl]-amide]
melting point: 69 °C

O=C(NCCc1ccc(F)cc1F)c1ncccc1C(F)(F)F [A.005]
melting point: 78 °C
